The structures appear in SMILES notation. In brackets after ≈: the same amount, converted by molar mass.

One test relates to LNCaP. In words: Antiproliferative activity against human LNCaP cells. Type of test: functional, cell-based.
For another test, the system named is PC-3. In words: Antiproliferative activity against human PC-3 cells. Format: functional, cell-based.
For the next test, the system named is HeLa. The test is described as follows: Cytotoxicity against human HeLa cells. Type of test: functional, cell-based.
In test [1] the test system is Staphylococcus aureus. In words: Antibacterial activity against Staphylococcus aureus by disc diffusion method. Type of test: functional. (In general: A growth-free zone around the sample is the usual read-out of agar diffusion tests.)
Test [2] concerns Pseudomonas aeruginosa. The test is described as follows: Antibacterial activity against multidrug resistant Pseudomonas aeruginosa 025. Format: functional.
In test [3] the test system is Pseudomonas aeruginosa. The test is described as follows: Antibacterial activity against multidrug resistant Pseudomonas aeruginosa 034. Type of test: functional.
Test [4] concerns Escherichia coli. In words: Antibacterial activity against Escherichia coli by disc diffusion method. Format: functional.
The next test relates to Bacillus subtilis. In words: Antibacterial activity against Bacillus subtilis by agar well diffusion method. Type of test: functional.
The next test has as its system Nakaseomyces glabratus. In words: Antifungal activity against Candida glabrata. Type of test: functional.
A further test has as its system Candida tropicalis. The test is described as follows: Antifungal activity against Candida tropicalis. Type of test: functional.
Test [5] has as its system Candida albicans. The test is described as follows: Antifungal activity against Candida albicans. Type of test: functional.
Test [6] concerns Syncephalastrum racemosum. In words: Antifungal activity against Syncephalastrum racemosum RCMB 05922 assessed as zone of inhibition. Format: functional.
Test [7] concerns Candida albicans. In words: Antifungal activity against Candida albicans RCMB 05036 assessed as zone of inhibition. Type of test: functional.
The subject of a further test is Aspergillus flavus. The test is described as follows: Antifungal activity against Aspergillus flavus. Format: functional.
The subject of a further test is Aspergillus fumigatus. In words: Antifungal activity against Aspergillus fumigatus RCMB 02568 assessed as zone of inhibition. Format: functional.
Another test concerns Geotrichum candidum. The test is described as follows: Antifungal activity against Geotrichum candidum RCMB 05097 assessed as zone of inhibition. Format: functional.
For test [8], the system named is Aspergillus niger. The test is described as follows: Antifungal activity against Aspergillus niger. Format: functional.
Test [9] has as its system Staphylococcus epidermidis. The test is described as follows: microbe, parasite or virus in culture. Conditions: PTCC 1435.
Description: Antimicrobial activity against Staphylococcus epidermidis PTCC 1435 by broth disk diffusion microdilution method
The subject of the next test is Proteus mirabilis. In words: microbe, parasite or virus in culture. Conditions: PTCC 1776.
Another test deals with K562. In words: Anticancer activity against human K562 cells by MTT assay. Format: functional, cell-based. For orientation: Tetrazolium dyes change colour on reduction, which living cells bring about.
A further test deals with A549. The test is described as follows: Anticancer activity against human A549 cells by MTT assay. Format: functional, cell-based.
A further test concerns the target Cholinesterase (Homo sapiens, UniProt P06276). The test is described as follows: Inhibition of BChE (unknown origin).
For the next test, the target named is Acetylcholinesterase (Homo sapiens, UniProt P22303). In words: Inhibition of AChE (unknown origin).
Sequence of Acetylcholinesterase (P22303 whole entry): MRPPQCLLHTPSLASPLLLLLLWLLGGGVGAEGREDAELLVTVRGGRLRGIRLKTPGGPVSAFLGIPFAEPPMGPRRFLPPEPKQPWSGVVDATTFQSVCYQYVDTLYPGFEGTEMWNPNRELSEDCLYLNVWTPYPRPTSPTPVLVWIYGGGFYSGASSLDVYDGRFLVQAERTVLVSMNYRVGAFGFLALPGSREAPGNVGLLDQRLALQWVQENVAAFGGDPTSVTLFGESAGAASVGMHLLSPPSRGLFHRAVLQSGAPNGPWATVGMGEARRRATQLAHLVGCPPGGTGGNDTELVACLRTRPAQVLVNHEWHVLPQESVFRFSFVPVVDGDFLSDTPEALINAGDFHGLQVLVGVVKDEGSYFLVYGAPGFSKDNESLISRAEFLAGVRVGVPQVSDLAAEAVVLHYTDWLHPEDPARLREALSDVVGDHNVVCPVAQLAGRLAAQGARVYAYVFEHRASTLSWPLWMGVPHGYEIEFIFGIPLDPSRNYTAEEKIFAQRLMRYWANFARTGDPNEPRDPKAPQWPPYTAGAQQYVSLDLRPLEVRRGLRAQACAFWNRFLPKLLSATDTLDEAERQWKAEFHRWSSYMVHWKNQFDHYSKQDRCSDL
Test [10] deals with Aspergillus niger. In words: Antifungal activity against Aspergillus niger assessed as zone of inhibition at 25 ug/ml. Conditions: read-out: DIZ. Format: functional.
Another test concerns Candida metapsilosis. The test is described as follows: Antifungal activity against Candida metapsilosis assessed as zone of inhibition at 25 ug/ml. Type of test: functional. Conditions: Lodderomyces metapsilosis, read-out: DIZ.
A further test concerns T47D. The test is described as follows: Antiproliferative activity against human T47D cells by MTT reduction assay. Format: functional, cell-based.
The test system of another test is MDA-MB-231. The test is described as follows: Antiproliferative activity against human MDA-MB-231 cells by MTT reduction assay. Format: functional, cell-based.
In a further test the test system is MCF7. In words: Antiproliferative activity against human MCF7 cells by MTT reduction assay. Type of test: functional, cell-based.
Test [11] relates to Staphylococcus aureus. In words: Antibacterial activity against Staphylococcus aureus assessed as zone of inhibition. Type of test: functional.
Test [12] relates to Escherichia coli. In words: Antibacterial activity against Escherichia coli assessed as zone of inhibition. Format: functional.

Sequence of Cholinesterase (P06276 whole entry): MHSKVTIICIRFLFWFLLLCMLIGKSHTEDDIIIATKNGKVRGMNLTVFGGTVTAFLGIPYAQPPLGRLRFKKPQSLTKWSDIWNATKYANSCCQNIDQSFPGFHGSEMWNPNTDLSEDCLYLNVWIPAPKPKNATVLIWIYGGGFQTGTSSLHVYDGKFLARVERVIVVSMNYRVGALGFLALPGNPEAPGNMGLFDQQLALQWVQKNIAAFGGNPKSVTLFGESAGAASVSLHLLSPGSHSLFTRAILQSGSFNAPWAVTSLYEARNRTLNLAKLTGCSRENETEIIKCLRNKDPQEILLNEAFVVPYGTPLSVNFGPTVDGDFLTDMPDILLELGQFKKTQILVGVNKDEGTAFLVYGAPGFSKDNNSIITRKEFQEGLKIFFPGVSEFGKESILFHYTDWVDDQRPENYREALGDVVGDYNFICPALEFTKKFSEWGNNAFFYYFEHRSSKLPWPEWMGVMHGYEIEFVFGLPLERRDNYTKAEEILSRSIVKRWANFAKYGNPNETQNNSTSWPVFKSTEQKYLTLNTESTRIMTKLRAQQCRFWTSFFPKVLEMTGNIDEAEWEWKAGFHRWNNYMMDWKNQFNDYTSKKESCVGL
Description for Proteus mirabilis: Antimicrobial activity against Proteus mirabilis PTCC 1776 by broth disk diffusion microdilution method

On to `O=C1c2ccccc2C2Oc3c(c(=O)oc4ccccc34)C3(C(=O)N(c4ccc(Cl)cc4)c4ccccc43)C12` (centres undefined), for which the IC50 in the test with LNCaP came to 1.3 µM; in the test with PC-3, 0.08 µM.

`CCN(CC)CCNC(=O)c1c(C)[nH]c(/C=C2\C(=O)Nc3ccc(F)cc32)c1C` [SUNITINIB]: the IC50 in the test with HeLa was more than 30 µM.

With `O=C(O)c1cn(C2CC2)c2cc(N3CCNCC3)c(F)cc2c1=O` [CIPROFLOXACIN], the MIC in the test with Staphylococcus aureus [1] is 50 µg/mL (≈ 151 µM); in the test with Pseudomonas aeruginosa [2], 32 µg/mL (≈ 96.6 µM); in the test on Pseudomonas aeruginosa [3] it was 32 µg/mL (≈ 96.6 µM); against Escherichia coli [4], 25 µg/mL (≈ 75.4 µM); in the test with Bacillus subtilis, 6.25 µg/mL (≈ 18.9 µM).

For `Cc1ccc(C2C3CCCN3C3(C(=O)Nc4ccccc43)C2C(=O)c2ccc(-c3ccc(F)cc3F)cc2)cc1` (centres undefined), the MIC turned out to be 25 µg/mL (≈ 46.8 µM) against Nakaseomyces glabratus, 25 µg/mL (≈ 46.8 µM) in the test on Candida tropicalis and 12.5 µg/mL (≈ 23.4 µM) in the test on Candida albicans [5].

Turning to `OC(Cn1cncn1)(Cn1cncn1)c1ccc(F)cc1F` [FLUCONAZOLE], the “diameter of the inhibition zone (DIZ)” value was 24.1 mm in [6], 28 mm in the test with Candida albicans [7], 25 mm with Aspergillus fumigatus and 30 mm with Geotrichum candidum. The MIC against Aspergillus flavus and with Aspergillus niger [8] was 20 µg/mL (≈ 65.3 µM) each time.

As to `CC1(C)CC(=O)C(=C2SC(N)=C(C#N)C3(S2)C(=O)N(Cc2ccc(Cl)cc2Cl)c2ccccc23)C(=O)C1` (centres undefined), the values for the MIC (in test [9]; against Proteus mirabilis) were 8 µg/mL (≈ 14 µM) and 16 µg/mL (≈ 28 µM), respectively.

On to `CC(C)=CC(=O)[C@H]1[C@H](c2ccc(Br)cc2)CN(C)[C@]12C(=O)Nc1ccc(Br)cc12`, for which the results for the IC50 in the test on K562 and in the test on A549 were 5.7 µM and 22.9 µM, respectively.

Consider `COc1cc2c(cc1OC)C(=O)[C@]1(C2)[C@H](c2cccc([N+](=O)[O-])c2)[C@H](Cc2c[nH]c3ccccc23)NC12C(=O)Nc1ccccc12` (some centres undefined), for which the IC50 against Cholinesterase came to 28.4 µM; on Acetylcholinesterase, 1.89 µM.

Take `COc1cccc([C@@H]2[C@H](Cc3c[nH]c4ccccc34)NC3(C(=O)Nc4ccccc43)[C@@]23Cc2cc(OC)c(OC)cc2C3=O)c1` (some centres undefined): the IC50 on Cholinesterase was found to be 8.32 µM; on Acetylcholinesterase it was 2.31 µM.

Consider `CCOC1=Nc2ccc(Br)cc2/C1=C\C(=O)c1ccccc1O`, for which the zone of inhibition at 25 µg/mL with Aspergillus niger [10] and in the test with Candida metapsilosis was 11 mm throughout.

`CC(O)(CS(=O)(=O)c1ccc(F)cc1)C(=O)Nc1ccc(C#N)c(C(F)(F)F)c1` (centres undefined) [BICALUTAMIDE]: the results for the IC50 in the test with LNCaP and with PC-3 were 1.5 µM and 1.3 µM, respectively.

On to `CCOC1=Nc2ccccc2/C1=C\C(=O)c1ccccc1O`, for which the zone of inhibition at 25 µg/mL in the test on Aspergillus niger [10] is 10 mm; with Candida metapsilosis it was 11 mm.

Turning to `COc1ccccc1C1C2CCCN2C2(C(=O)Nc3ccccc32)C1C(=O)c1ccc(-c2ccc(F)cc2F)cc1` (centres undefined), the MIC against Nakaseomyces glabratus, with Candida tropicalis and against Candida albicans [5] was 12.5 µg/mL (≈ 22.7 µM) in each case.

Turning to `O=C(c1ccc(OCCN2CCCC2)cc1)[C@H]1[C@H](c2ccccc2)C2CS[C@H](c3ccccc3)N2C12C(=O)Nc1ccc(F)cc12` (some centres undefined), the figures for the IC50 with T47D, in the test on MDA-MB-231 and in the test on MCF7 were 6.2 µM, 5.8 µM and 5.4 µM, respectively.

Consider `COC1=CC(=O)C[C@@H](C)[C@]12Oc1c(Cl)c(OC)cc(OC)c1C2=O` [GRISEOFULVIN], for which the zone of inhibition at 25 µg/mL in the test on Aspergillus niger [10] and in the test with Candida metapsilosis was 10 mm throughout.

As for `O=C1NC(=S)S[C@]12C1CCCN1[C@@]1(C(=O)Nc3ccccc31)[C@H]2c1ccccc1` (some centres undefined), the “diameter of the inhibition zone (DIZ)” value in test [6] is 14 mm; with Candida albicans [7], 25 mm; in the test with Aspergillus fumigatus, 16 mm; in the test with Geotrichum candidum, 24 mm.

For the compound `CCOC1=Nc2ccc(Br)cc2/C1=C\C(=O)c1ccccc1`, the figures for the “diameter of the inhibition zone (DIZ)” value in the test on Staphylococcus aureus [11] and in the test with Escherichia coli [12] were 7 mm and 6 mm, respectively.

With `CCOC1=Nc2ccccc2/C1=C\C(=O)c1ccc([N+](=O)[O-])cc1`, the zone of inhibition at 25 µg/mL in the test on Aspergillus niger [10] and in the test on Candida metapsilosis was 11 mm throughout.

Turning to `CCOC1=Nc2ccccc2/C1=C\C(=O)c1ccc(Cl)cc1`, the “diameter of the inhibition zone (DIZ)” value in the test with Staphylococcus aureus [11] and with Escherichia coli [12] was 6 mm in each case.

What is called IC50 is the point on the concentration scale where inhibition reaches its midpoint. A low value points to inhibition by little substance.
